Source: patent US6544962B1, “Methods for treating cellular proliferative disorders” (Matrix Pharmaceutical, Inc., priority 2000, dated 2003)

Legend:
[1] = system: A549 Human NSCLC Xenografts; experiment: Anti-tumor activity, A549 human NSCLC xenografts, multiple dose; type: in vivo, nu/nu mice; details: i.p.; for TVQT (days) (M ± SE), tumor volume quadrupling time: FMdC or gemcitabine 20 mg/kg Day 0, 3, 7, 10, CDDP 4 mg/kg Day 0, 7, FMdC 15 minutes prior to cisplatin; for TGD (days) (M ± SE), tumor growth delay: FMdC or gemcitabine 20 mg/kg Day 0, 3, 7, 10, CDDP 4 mg/kg Day 0, 7, difference of TVQT vs untreated control
Text: This example evaluated the effect of FMdC in combination with cisplatin in a human non-small-cell lung cancer (NSCLC) xenograft model. This combination was compared to the administration of the combination of gemcitabine with cisplatin. Gemcitabine (Gemzar®, Eli Lilly and Company) is 2′-deoxy-2′,2′-difluorocytidine (dFdC).
(§1) Xenogeneic NSCLC tumors of A549 cells (available through ATCC, Rockville, Md.) were induced by intradermal injection of approximately 5×10^6 cells into the flanks of female nu/nu mice. Two to three weeks after tumor cell inoculation, when the tumors were approximately 10 mm^3 in size, treatment with FMdC, gemcitabine or cisplatin solution was administered intraperitoneally (i.p.) in a volume of approximately 10 μL per gram of mouse body weight. Six to eight animals were used per treatment group.
(§2) The injectable solutions were prepared as follows: Lyophilized FMdC was reconstituted with sterile saline to a concentration of 2 or 20 mg/mL; gemcitabine was reconstituted with sterile saline to a concentration of 2 mg/mL; and cisplatin solution was prepared from lyophilized cisplatin (Cisplatin for Injection, David Bull Laboratories) by reconstitution with sterile water to a concentration of 0.4 or 0.6 mg/mL.
For this multiple treatment regimens, FMdC or gemcitabine was administered twice a week for two weeks at 20 mg/kg and cisplatin was administered once a week for two weeks at 4 mg/kg. FMdC was administered by injection 15 minutes prior to the administration of cisplatin.
(§3) Tumor growth and animal body weight were determined twice weekly for up to 30 days. Tumor volume quadrupling time (TVQT) was used as the study endpoint. Tumor growth delay (TGD) is the difference between TVQTs of a treated group and untreated control.

[2] = system: A549; experiment: MTT cell growth inhibition assay, A549 lung carcinoma cells; type: cell-based, human; details: 72 hours exposure
Method: (§4) The antiproliferative activity of FMdC in combination with cisplatin on growth inhibition in human carcinoma cell lines in vitro was studied using the following method.
(§5) Two lung carcinoma cell lines, A549 and Calu-6, (available through ATCC, Rockville, Md.), were cultured in F12K medium with 10% fetal bovine serum at an atmosphere of 5% CO2 at 37° C. All cells were exposed to both FMdC and cisplatin in different concentrations for 72 hours.
(§6) Cell growth inhibition was determined by measuring the metabolic activity of cells using the MTT (tetrazolium salt) assay. For the MTT assays, the cells were seeded at 4×10^3 in 100 μL per well in a 96-well microtiter culture plate. The concentration of FMdC ranged from 10 nM to 100 μM and the concentration of cisplatin ranged from 1 μM to 10 mM. At the end of the treatment, tetrazolium salt (MTT) was added to each well and then solubilized. The microtiter plate was then measured (O.D. at 570 nm) using an ELISA plate reader. The 50% inhibitory concentrations (IC50) values of FMdC and cisplatin as single agents and in combination were determined.

[3] = system: Calu-6; experiment: MTT cell growth inhibition assay, Calu-6 lung carcinoma cells; type: cell-based, human; details: Calu-6 cells, 72 hours exposure
Method: as §4, §5, §6

[4] = system: A549 Human NSCLC Xenografts; experiment: Influence of time interval between FMdC and CDDP, A549 human NSCLC xenografts, single dose; type: in vivo, nu/nu mice; details: single agent, single dose i.p.; FMdC 200 mg/kg, CDDP 6 mg/kg
Text: (§7) This example evaluated the effect of FMdC in combination with cisplatin in two human non-small-cell lung cancer (NSCLC) xenograft models. This example examined the influence of the time interval between FMdC and cisplatin administration.
as §1, with “A549 cells or Calu-6” for “A549”, “FMdC and/or” for “FMdC, gemcitabine or”
as §2, with “mg/mL;” for “mg/mL; gemcitabine”
as §3

[5] = system: Calu-6 Human NSCLC Xenografts; experiment: Influence of time interval between FMdC and CDDP, Calu-6 human NSCLC xenografts, single dose; type: in vivo, nu/nu mice; details: single agent, single dose i.p.; FMdC 200 mg/kg, CDDP 6 mg/kg
Text: as §7
as §1, with “A549 cells or Calu-6” for “A549”, “FMdC and/or” for “FMdC, gemcitabine or”
as §2, with “mg/mL;” for “mg/mL; gemcitabine”
as §3

| Compound | TVQT (days) (M ± SE), tumor volume quadrupling time [1] | TGD (days) (M ± SE), tumor growth delay [1] | Cell growth inhibition / cell death (MTT assay) [2] | Cell growth inhibition / cell death (MTT assay) [3] | TGD (days) (M ± SE) [4] | TVQT (days) (M ± SE) [4] | TGD (days) (M ± SE) [5] | TVQT (days) (M ± SE) [5] |
| --- | --- | --- | --- | --- | --- | --- | --- | --- |
| Nc1ccn([C@@H]2O[C@H](CO)[C@@H](O)C2(F)F)c(=O)n1 [Gemcitabine, 2′-deoxy-2′,2′-difluorocytidine] | 18.7 ± 1.0 | 1.9 ± 1.6 | – | – | – | – | – | – |
| Nc1ccn([C@@H]2O[C@H](CO)[C@@H](O)/C2=C\F)c(=O)n1 [FMdC, (E)-2′-deoxy-2′-(fluoromethylene)cytidine] | 19.8 ± 1.1 | 3.0 ± 1.6 | not effective | not effective | 3.6 ± 1.3 | 17.8 ± 1.0 | 2.0 ± 0.6 | 11.3 ± 0.4 |
| N.N.[Cl][Pt][Cl] [CDDP, cis-diamminedichloroplatinum] | 18.1 ± 0.9 | 1.3 ± 1.5 | not effective | not effective | 1.9 ± 2.0 | 16.1 ± 1.8 | 8.8 ± 1.6 | 18.1 ± 1.5 |
